# Laboratory results published in patent US5508311A, “Aliphatic propargylamines as selective MAO-B inhibitors and as neuroprotective agents” (University of Saskatchewan, priority 1993, dated 1996).
# Tests used:
# dopamine neurons = test: Protection of dopamine neurons against MPTP-induced neurotoxicity in the mice brain; assay type: in vivo, mouse
# Excerpt: Three days later, dopamine levels and dopamine uptake site densities (GBR bindings) were estimated.
# MAO-A [1] = target: T1, MAO-A (Rattus norvegicus, UniProt P21396); test: biochemical; assay type: biochemical; conditions: substrate 5-HT (5 × 10^-4 M); rat liver MAO, in vitro; average of at least 3 independent experiments
# T1 sequence (P21396 1-526): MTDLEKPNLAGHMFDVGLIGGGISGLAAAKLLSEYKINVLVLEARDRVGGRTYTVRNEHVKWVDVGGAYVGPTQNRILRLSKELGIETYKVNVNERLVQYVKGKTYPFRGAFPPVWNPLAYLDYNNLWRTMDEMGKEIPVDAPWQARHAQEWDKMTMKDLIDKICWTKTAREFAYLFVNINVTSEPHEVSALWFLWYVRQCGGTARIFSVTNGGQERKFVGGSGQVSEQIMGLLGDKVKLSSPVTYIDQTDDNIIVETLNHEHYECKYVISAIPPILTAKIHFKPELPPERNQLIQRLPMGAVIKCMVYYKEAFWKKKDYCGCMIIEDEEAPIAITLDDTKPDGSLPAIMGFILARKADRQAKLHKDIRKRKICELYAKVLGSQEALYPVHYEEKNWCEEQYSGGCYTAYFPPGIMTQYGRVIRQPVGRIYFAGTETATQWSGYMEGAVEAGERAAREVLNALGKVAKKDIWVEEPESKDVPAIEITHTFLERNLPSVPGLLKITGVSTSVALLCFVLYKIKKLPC
# Method: (§1) The aliphatic propargylamine inhibitors (from 1×10^-10 M to 1×10^-4 M) were preincubated with the MAO for 20 min. at ambient room temperature and then the residual enzyme activities were determined by addition of the substrates, followed by further incubation at 37° C. for 30 min. The enzymatic reactions were terminated by the addition of citric acid and the aldehyde products were extracted with toluene: ethyl acetate (1:1, v/v) and the radio-activities assessed in a scintillation counter.
# MAO-B [2] = target: T2, MAO-B (Rattus norvegicus, UniProt P19643); test: biochemical; assay type: biochemical
# T2 sequence (P19643 1-520): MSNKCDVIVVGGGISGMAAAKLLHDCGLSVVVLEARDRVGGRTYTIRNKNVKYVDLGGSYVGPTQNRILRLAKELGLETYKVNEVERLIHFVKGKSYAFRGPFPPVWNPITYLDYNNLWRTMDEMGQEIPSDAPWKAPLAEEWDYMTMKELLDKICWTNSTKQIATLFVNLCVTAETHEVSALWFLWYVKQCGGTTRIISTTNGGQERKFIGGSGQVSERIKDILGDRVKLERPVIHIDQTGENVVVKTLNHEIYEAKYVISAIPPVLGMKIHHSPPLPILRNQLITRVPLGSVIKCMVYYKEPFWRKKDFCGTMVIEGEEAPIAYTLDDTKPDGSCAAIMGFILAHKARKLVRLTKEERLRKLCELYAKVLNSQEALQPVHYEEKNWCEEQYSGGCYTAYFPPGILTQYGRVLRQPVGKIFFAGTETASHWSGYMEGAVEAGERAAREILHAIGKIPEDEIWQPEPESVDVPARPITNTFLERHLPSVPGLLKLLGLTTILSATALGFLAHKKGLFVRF
# Method: as §1
# MAO-A [3] = target: T3, MAO-A (Mus musculus, UniProt Q64133); test: in vivo; conditions: ip, 2 h, read-out: 5-HT ID50
# T3 construct: MAO activities in the mouse brain after; from tissue
# T3 sequence (Q64133 1-526): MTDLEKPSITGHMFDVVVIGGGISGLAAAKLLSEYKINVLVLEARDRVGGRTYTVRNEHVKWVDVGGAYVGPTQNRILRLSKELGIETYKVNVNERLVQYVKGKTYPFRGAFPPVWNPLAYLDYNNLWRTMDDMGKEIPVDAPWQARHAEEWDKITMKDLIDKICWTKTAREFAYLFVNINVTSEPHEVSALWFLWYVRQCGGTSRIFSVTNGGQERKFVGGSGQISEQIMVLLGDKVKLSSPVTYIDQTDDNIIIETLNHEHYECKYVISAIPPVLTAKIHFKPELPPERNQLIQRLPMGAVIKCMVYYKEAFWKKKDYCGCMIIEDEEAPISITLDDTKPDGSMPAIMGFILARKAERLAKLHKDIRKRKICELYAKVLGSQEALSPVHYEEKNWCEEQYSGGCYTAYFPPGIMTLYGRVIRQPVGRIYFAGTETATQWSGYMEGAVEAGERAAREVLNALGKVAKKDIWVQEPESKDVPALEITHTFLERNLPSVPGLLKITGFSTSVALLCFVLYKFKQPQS
# Method: (§2) Albino Swiss mice were used in this study. The animals were injected intraperitoneally with different doses of the aliphatic propargylamines in 100 μL saline.
# (§3) 0.5, 1, 2, 5, 10, 20, 50, 100 mg/Kg. Striata were dissected from the brai
# (§4) two hours after i.p. administration of the drugs. MAOA and MAOB activitie
# (§5) were determined immediately. The values were estimated from doseresponse
# [4] = mouse, in vivo
# Excerpt: The acute toxicity of these compounds is quite low. […]. The aliphatic side-chains of these aliphatic propargyl compounds are similar to those that exist in endogenous lipids and fatty acids and such aliphatic chains are readily oxidized in vivo. […]
# MAO-B [5] = target: T4, MAO-B (Mus musculus, UniProt Q8BW75); test: in vivo; assay type: in vivo; conditions: mouse, ip
# T4 construct: MAO activities in the mouse brain after; from tissue
# T4 sequence (Q8BW75 1-520): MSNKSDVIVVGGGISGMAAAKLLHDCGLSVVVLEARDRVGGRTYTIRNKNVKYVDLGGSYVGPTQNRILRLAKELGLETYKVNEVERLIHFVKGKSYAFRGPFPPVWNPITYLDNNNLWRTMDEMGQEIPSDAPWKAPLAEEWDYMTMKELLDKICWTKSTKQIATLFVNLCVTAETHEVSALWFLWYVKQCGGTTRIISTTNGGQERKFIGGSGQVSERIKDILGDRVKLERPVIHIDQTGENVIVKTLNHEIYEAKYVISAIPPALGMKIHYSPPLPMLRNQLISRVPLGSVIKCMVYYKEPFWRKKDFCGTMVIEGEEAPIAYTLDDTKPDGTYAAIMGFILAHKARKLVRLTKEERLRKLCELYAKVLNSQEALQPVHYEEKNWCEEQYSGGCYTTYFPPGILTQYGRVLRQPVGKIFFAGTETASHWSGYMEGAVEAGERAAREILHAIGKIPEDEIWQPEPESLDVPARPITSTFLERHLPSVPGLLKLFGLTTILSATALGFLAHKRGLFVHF
# Method: as §2, §3, §4, §5
compound,measurement,setting,value
"C#CCN(C)C(C)CCC.Cl.O=C(O)C(=O)O (stereo not shown) [Example M-2-PP, N-(2-Pentyl)-N-methylpropargylamine hydrochloride and oxalate]",Dopamine,dopamine neurons; 0.5 mg/Kg + MPTP,8.3 μg/gm
same,Dopamine binding site,dopamine neurons; 0.5 mg/Kg + MPTP,312 pmol/mg
same,Dopamine,dopamine neurons; 2.5 mg/Kg + MPTP,8.9 μg/gm
same,Dopamine binding site,dopamine neurons; 2.5 mg/Kg + MPTP,306 pmol/mg
same,IC50,MAO-A [1],10 µM
same,Ratio MAO-A/MAO-B,"MAO-B [2]; rat, liver mitochondrial membranes",50
same,IC50,MAO-B [2]; read-out: PE IC50,200 nM
same,ED50,MAO-A [3],25 mg/kg
same,fatality after oral administration,[4],no fatality
same,MAO-B ID50 (mg/Kg) / IC50 (1 × 10^-6 M),MAO-B [5]; in vivo,2.5
same,inhibition of brain MAO-B activity in vivo (in words),MAO-B [5]; in vivo,more potent than the longer chain analogs at inhibiting brain MAO-B activity
same,Ratio MAO-A/MAO-B,"MAO-B [5]; in vivo, 120 min",50
same,ED50,"MAO-B [5]; 2 h, read-out: PE ID50",0.5 mg/kg
